Experimental data reported in patent publication US20060100567A1, “Microsurgical tissue treatment system” (Rocky Mountain Biosystems, Inc, priority 2004, published 2006).

Experiment: Delivery of a topical anesthetic through micro-ablated stratum corneum
Format: in vivo
Settings: solution of 4% lidocaine applied for five minutes to approx. 1 cm^2 area ablated by piezoelectric actuator with 60 micron aluminum oxide particles, 10-15 pulses, 20 kHz
Method: A piezoelectric actuator was fitted with 60 micron aluminum oxide particles fixed to its surface so as to provide an approximate 1 cm^2 treatment area. Ten to fifteen pulses of less than one second duration were applied with force of less than 1 pound to the area and frequency of 20 kHz. […] A solution of 4% lidocaine was applied to the area and incubated for five minutes. The excess lidocaine was wiped off, and a series of probes was made in and around the area of treatment using a 20 gauge needle or by pinching.

With `CCN(CC)CC(=O)Nc1c(C)cccc1C` [lidocaine] the “anesthesia (sensation on probing with a 20 gauge needle or pinching)” value was “significant anesthesia was obtained”.
